Experimental data as given in ChEMBL document CHEMBL1201862, “PubChem BioAssay data set” (2004).
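Five compound concentrations were applied to cells in 96-well plates for 48 hours; endpoints were derived by simple linear interpolation of the resulting dose-response curve. Abbreviation: GI50, concentration required for 50% inhibition of growth.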 The source made the active and inactive calls. No stated cut-off is given here; in the data, active = GI50 up to about 1.1 µM and inactive = higher.

How the values were obtained:
Assay in all cases: NCI tumour cell line growth inhibition, 48 h
CAKI-1 = test system: CAKI-1
CCRF-CEM = test system: CCRF-CEM
EKVX = test system: EKVX
K562 = test system: K562
M19-MEL = test system: M19-MEL
MCF7 = test system: MCF7
Malme-3M = test system: Malme-3M
NCI-H460 = test system: NCI-H460
OVCAR-8 = test system: OVCAR-8
RPMI-8226 = test system: RPMI-8226
RXF 393 = test system: RXF 393
SF-295 = test system: SF-295
SK-MEL-5 = test system: SK-MEL-5
SK-OV-3 = test system: SK-OV-3
SN12C = test system: SN12C
SNB-19 = test system: SNB-19
SW-620 = test system: SW-620
U-251 = test system: U-251
UACC-62 = test system: UACC-62
UO-31 = test system: UO-31

| SMILES | GI50 (CAKI-1) | GI50 (CCRF-CEM) | GI50 (EKVX) | GI50 (K562) | GI50 (M19-MEL) | GI50 (MCF7) | GI50 (Malme-3M) | GI50 (NCI-H460) | GI50 (OVCAR-8) | GI50 (RPMI-8226) | GI50 (RXF 393) | GI50 (SF-295) | GI50 (SK-MEL-5) | GI50 (SK-OV-3) | GI50 (SN12C) | GI50 (SNB-19) | GI50 (SW-620) | GI50 (U-251) | GI50 (UACC-62) | GI50 (UO-31) |
| --- | --- | --- | --- | --- | --- | --- | --- | --- | --- | --- | --- | --- | --- | --- | --- | --- | --- | --- | --- | --- |
| N[C@@H](CSCSC[C@H](N)C(=O)O)C(=O)O | > 225 µM (inactive) | 89.5 µM (inactive) | > 225 µM (inactive) | > 225 µM (inactive) | > 225 µM (inactive) | > 225 µM (inactive) | > 225 µM (inactive) | > 225 µM (inactive) | 35.6 µM (inactive) | > 225 µM (inactive) | > 225 µM (inactive) | > 225 µM (inactive) | > 225 µM (inactive) | > 225 µM (inactive) | > 225 µM (inactive) | 174 µM (inactive) | > 225 µM (inactive) | > 225 µM (inactive) | > 225 µM (inactive) | > 225 µM (inactive) |
| CC(C)=CC(=O)OC1C2C(C)=CC(O)C(O)C2(C)C2C3(O)OCC24C(CC(=O)OC14)C(C)C3O (stereo not given) | 2.93 µM (inactive) | 0.0462 µM (active) | 0.143 µM (active) | 0.0378 µM (active) | 0.034 µM (active) | 0.0269 µM (active) | 0.0286 µM (active) | 0.0596 µM (active) | 0.166 µM (active) | 0.0346 µM (active) | 0.183 µM (active) | 0.28 µM (active) | 0.0252 µM (active) | 3.13 µM (inactive) | 0.386 µM (active) | 0.14 µM (active) | 0.162 µM (active) | 0.0519 µM (active) | 0.0649 µM (active) | 2.32 µM (inactive) |
| CSCC(CO)NC(=O)/C=C/c1c(C)[nH]c(=O)[nH]c1=O (stereo not given) | 91.8 µM (inactive) | 153 µM (inactive) | 454 µM (inactive) | 117 µM (inactive) | 478 µM (inactive) | 40.3 µM (inactive) | 307 µM (inactive) | 671 µM (inactive) | 228 µM (inactive) | 661 µM (inactive) | > 875 µM (inactive) | > 875 µM (inactive) | > 820 µM (inactive) | 641 µM (inactive) | 367 µM (inactive) | 791 µM (inactive) | 366 µM (inactive) | 462 µM (inactive) | > 800 µM (inactive) | 557 µM (inactive) |
